# Assay results as given in US12295973B2 (Fred Hutchinson Cancer Center, priority 2017, dated 2025).
# Where a SMILES comes first, the peptide text is derived from it. [ ]: non-standard residue; d: D form. The star is where a group is joined. dPhe(4-NHCONH2) = NC(=O)Nc1ccc(C[C@@H](N)C(=O)O)cc1; Dihydroorotyl(S) = O=C1C[C@@H](C(=O)*)NC(=O)N1; dPhe(4-Cl) = N[C@H](Cc1ccc(Cl)cc1)C(=O)O; Phe(4-NH2) = Nc1ccc(C[C@H](N)C(=O)O)cc1; d2Nal = N[C@H](Cc1ccc2ccccc2c1)C(=O)O; Lys(iPr) = CC(C)NCCCC[C@H](N)C(=O)O; d3Pal = N[C@H](Cc1cccnc1)C(=O)O
# What was measured:
# functional HSCs = assay: Adapted competitive repopulation functional assay (BM and spleen cells of treated L-TBI mice transplanted into irradiated hosts); format: in vivo, mouse; conditions: cells collected day 14 after L-TBI; vs recipients of cells from vehicle-treated mice
# Protocol: To investigate the specific regenerative effects mediated by LHRH-Ant treatment on the hematopoietic stem and progenitor cell (HSPC) compartment, BM were analyzed at several time points after L-TBI. […] To determine hematopoietic functional potential, colony-forming unit activity was next quantified to determine the effects of LHRH-Ant on the recovery of committed hematopoietic progenitor cells. […] Consistent with these functional findings, on day 14 after L-TBI, expansion of LSKs as well as their downstream progenitors in mice given LHRH-Ant were found (FIGS. 2F, 2G). […] However, given the changes in HSC phenotype after radiation, the standard competitive repopulation functional assay was adapted to evaluate the presence and relative quantity of functional HSCs after L-TBI. Specifically, all cells from the BM and spleen (to account for potential changes to circulating HSCs) were collected and transplanted from vehicle or LHRH-Ant treated mice at day 14 after L-TBI into irradiated hosts (along with a rescue dose of congenic WBM cells to ensure survival). […]
# Bone marrow transplant: In the competitive BM transplant, whole BM from CD45.2+ (vehicle or LHRH-Ant) donors and were collected and transplanted into lethally irradiated CD45.1+ mice (1100 cGy TBI, split dose) along with 2.5×10^5 CD45.1+ competitors, through tail vein injection. Donor chimerism was monitored monthly after transplant. […]
# LT-HSCs = assay: Cell cycle status of HSCs (Ki-67/DAPI) after L-TBI; format: in vivo, mouse; conditions: vs vehicle
# Text: The control of HSC self-renewal, differentiation, and proliferation is a tightly regulated process crucial for maintaining the HSC pool^29-34. This is particularly relevant during hematopoietic injuries (such as high dose or repeated rounds of chemotherapy or irradiation) when dormant HSCs transiently start to proliferate to replenish blood cells as unbalanced HSC proliferation can lead to stem cell exhaustion and long-term myelosuppression^35-37. […] Although there is a clear need for HSC proliferation to ensure regenerative hematopoiesis, previous reports have also shown that induction of HSC quiescence after high-dose irradiation correlates with increased hematopoietic recovery and enhanced mouse survival^35,37,41.
# Flow cytometry and cell cycle analysis: Monoclonal antibodies recognizing the following markers were used for flow cytometric analyses and cell sorting of murine cells (LSR II or FACSAria III, BD Biosciences): (from BD Pharmingen) c-kit (2B8), Sca-1 (D7), CD11b (M1/70), CD11c (HL3), CD19 (ID3), CD3ϵ (145-2C11), CD34 (RAM34), CD45 (30-F11), CD45.1 (A20), CD45.2 (104), CD48 (HM48-1), CD62L (MEL-14), CD135 (A2F10.1), Gr-1 (RB6-8C5), NK1.1 (PK136), TER-119 (TER-119); (from eBioscience) CD127 (A7R34), CD150 (mShad150); (from Invitrogen) B220 (RA3-6B2) and streptavidin (N/A). […]
# [1] = Hormone levels (testosterone, LH, FSH) after L-TBI; format: in vivo, mouse
# mice exposed to L-TBI = assay: Mouse survival after lethal total body irradiation (L-TBI, 840cGy); format: in vivo
# Text: Description. Inhibition of sex steroids, which can be achieved in a reversible fashion pharmacologically, is a well-described strategy to promote lymphopoiesis in the BM and thymus^8,7,14,15. Although the most common method of sex steroid ablation clinically has been to use LHRH-agonists, it was described that an LHRH-Antagonist represents a more rational approach to promote immediate ablation of sex steroids for immune regeneration as it is far more rapid and abrogates the initial surge in sex steroids that LHRH-Agonist cause^16. Taken together with the impact of sex steroid inhibition on HSC function and the rapid regenerative effects of LHRH-Ant, it was hypothesized that LHRH-Ant could represent a rational non-cellular medical countermeasure for mitigating radiation injury and promoting hematopoietic regeneration when administered after hematopoietic insult. […] It was then tested if LHRH-Ant could mediate even greater mouse survival when administered multiple times.
# Methods. […] B6.SJL-Ptprca Pepcb/BoyJ (CD45.1) male mice (The Jackson Laboratory) were used between 7 and 12 weeks of age for transplant. Mice were irradiated with a Gammacell 40 Irradiator (Cs-137), with an average dose rate of 95 cGy/min, in a plexiglass mouse pie cage. To assess mouse survival after radiation, mice were monitored for up to 60 days after TBI. To adjust for differences in weight, identical mice were purchased from Jackson and cages randomly distributed over different groups. All animal protocols were approved by the Memorial Sloan Kettering Cancer Center Institutional Animal Care and Use Committee.
# Reagents: Degarelix (as acetate), a LHRH-Ant (Firmagon), was resuspended in sterile water for injection and administered S.C. to mice at a dose of 40 mg/kg. To evaluate the radiomitigative effect of LHRH-Ant on survival, mice were treated subcutaneously (S.C.) with a single injection of the LHRH-Ant or a saline control solution (PBS). Degarelix was purchased from the Memorial Sloan-Kettering Cancer Center Pharmacy. […] MDV3100 (selleckchem) was resuspended in a mixture of 45% PBS, 45% PEG and 10% DMSO and administered daily to mice by oral gavage at a dose of 10 mg/kg. 5-FU (InvivoGen) was administered to mice intraperitoneally (I.P.) at a dose of 150 mg/kg once every 7 days consecutively for 3 times as previously described^34,47,49.
smiles,measurement,setting,value
"CC(=O)N[C@H](Cc1ccc2ccccc2c1)C(=O)N[C@H](Cc1ccc(Cl)cc1)C(=O)N[C@H](Cc1cccnc1)C(=O)N[C@@H](CO)C(=O)N[C@@H](Cc1ccc(NC(=O)[C@@H]2CC(=O)NC(=O)N2)cc1)C(=O)N[C@H](Cc1ccc(NC(N)=O)cc1)C(=O)N[C@@H](CC(C)C)C(=O)N[C@@H](CCCCNC(C)C)C(=O)N1CCC[C@H]1C(=O)N[C@H](C)C(N)=O [LHRH-Ant, Degarelix] (Ac-[d2Nal][dPhe(4-Cl)][d3Pal]S[Phe(4-NH2)](Dihydroorotyl(S))[dPhe(4-NHCONH2)]L[Lys(iPr)]P[dA]-NH2)",hematopoietic reconstitution of host mice,functional HSCs,significantly better hematopoietic reconstitution
same,proliferative HSCs,LT-HSCs,fewer proliferative HSCs
same,proportion of Ki-67− quiescent LT-HSCs,LT-HSCs,significantly higher proportion
same,level of testosterone,[1]; after radiation,did not significantly lower the level of testosterone
same,level of FSH,[1]; irradiated mice,dramatically decreased
same,level of LH,[1]; irradiated mice,dramatically decreased
same,survival after L-TBI,"mice exposed to L-TBI; LHRH-Ant given 24 h after L-TBI, vs vehicle, male mice",significant increase in survival
same,survival after L-TBI,mice exposed to L-TBI; administered 48 h after L-TBI,significantly enhanced mouse survival
same,survival after L-TBI in female mice,mice exposed to L-TBI; female mice,statistically significant benefit in survival
same,survival after L-TBI in surgically castrated mice,"mice exposed to L-TBI; male mice castrated 5 days prior to TBI, simultaneous LHRH-Ant",restored the benefits in mouse survival
same,"survival after L-TBI, multiple administrations","mice exposed to L-TBI; treatment 24 h and 15 days after L-TBI, vs single treatment",did not significantly enhance the survival benefit
